Experimental data as given in ChEMBL document CHEMBL3400000, “The discovery of potent agonists for GPR88, an orphan GPCR, for the potential treatment of CNS disorders” (Bioorg Med Chem Lett, 2015).

molecular target: G protein-coupled receptor 88 (Homo sapiens, UniProt Q9GZN0); test: Agonist activity at GPR88 (unknown origin) transfected into cells assessed as cAMP accumulation by HTRF assay; type: functional
Sequence (Q9GZN0 whole entry): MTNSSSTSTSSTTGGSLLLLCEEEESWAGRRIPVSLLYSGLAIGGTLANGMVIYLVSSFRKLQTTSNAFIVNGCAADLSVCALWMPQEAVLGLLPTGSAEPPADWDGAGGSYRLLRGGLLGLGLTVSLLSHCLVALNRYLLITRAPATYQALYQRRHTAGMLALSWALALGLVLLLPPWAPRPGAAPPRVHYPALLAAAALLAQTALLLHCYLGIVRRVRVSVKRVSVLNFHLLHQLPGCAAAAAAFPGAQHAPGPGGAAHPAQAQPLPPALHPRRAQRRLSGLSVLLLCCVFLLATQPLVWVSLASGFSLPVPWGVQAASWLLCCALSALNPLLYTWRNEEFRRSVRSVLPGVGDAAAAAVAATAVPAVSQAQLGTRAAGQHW

Row | Compound | EC50 [nM]
1 | CC(C)C[C@H](N)CN(C(=O)[C@@H]1C[C@H]1c1ccccc1)c1ccc(-c2cccc(F)c2)cc1 | 2100
2 | CC[C@H](C)[C@H](N)CN(C(=O)[C@@H]1C[C@H]1c1ccccc1)c1ccc(-c2ccc(N)cc2)cc1 | 320
3 | CC(C)[C@H](N)CN(C(=O)[C@@H]1C[C@H]1c1ccccc1)c1ccc(-c2ccccc2)cc1 | 1.1
4 | CC[C@H](C)[C@H](N)CN(C(=O)[C@@H]1C[C@H]1c1ccccc1)c1ccc(-c2ccc(C(F)(F)F)cc2)cc1 | 340
5 | O=C([C@@H]1C[C@H]1c1ccccc1)N(CCNCC1CCCCC1)c1ccc(-c2ccccc2)cc1 | 6.6
6 | CC[C@H](C)[C@H](N)CN(C(=O)[C@@H]1C[C@H]1c1ccccc1)c1ccc(-c2ccc(COC(C)(C)C)cc2)cc1 | 280
7 | CC(C)C[C@H](N)CN(C(=O)[C@@H]1C[C@H]1c1ccccc1)c1ccc(-c2ccsc2)cc1 | 1200
8 | CC[C@H](C)[C@H](N)CN(C(=O)[C@@H]1C[C@H]1c1ccc(C#N)cc1)c1ccc(-c2ccccc2)cc1 | > 25000
9 | CC[C@H](C)[C@H](N)CN(C(=O)[C@@H]1C[C@H]1c1ccc(OC)cc1)c1ccc(-c2ccccc2)cc1 | > 25000
10 | CC[C@H](C)[C@H](N)CN(C(=O)[C@@H]1C[C@H]1c1ccsc1)c1ccc(-c2ccccc2)cc1 | 450
11 | CC[C@H](C)[C@H](N)CN(C(=O)[C@@H]1C[C@H]1c1ccccn1)c1ccc(-c2ccc(OC(C)C)cc2)cc1 | 3.5
12 | CC[C@H](C)[C@H](N)CN(C(=O)[C@@H]1C[C@H]1C1CCCCC1)c1ccc(-c2ccccc2)cc1 | > 25000
13 | CC(C)(C)[C@H](N)CN(C(=O)[C@@H]1C[C@H]1c1ccccc1)c1ccc(-c2ccccc2)cc1 | 11
14 | NC1(CN(C(=O)[C@@H]2C[C@H]2c2ccccc2)c2ccc(-c3ccccc3)cc2)CCCC1 | 0.57
15 | CC[C@H](C)[C@H](N)CN(C(=O)[C@@H]1C[C@H]1c1ccccc1)c1ccc(-c2ccc(C(C)(C)C)cc2)cc1 | 750
16 | CC[C@H](C)[C@H](N)CN(C(=O)[C@@H]1C[C@H]1c1ccccc1)c1ccc(-c2ccc(OC(C)C)cc2)cc1 | 72
17 | CC(C)C[C@H](N)CN(C(=O)[C@@H]1C[C@H]1c1ccccc1)c1ccc(-c2cccc(C#N)c2)cc1 | 4500
18 | CC[C@H](C)[C@H](N)CN(C(=O)[C@@H]1C[C@H]1c1cccc(C#N)c1)c1ccc(-c2ccccc2)cc1 | 1600
19 | O=C([C@@H]1C[C@H]1c1ccccc1)N(CCNCC1CCCC1)c1ccc(-c2ccccc2)cc1 | 2.5
20 | CC[C@H](C)[C@H](N)CN(C(=O)[C@@H]1C[C@H]1c1cc(F)ccc1F)c1ccc(-c2ccccc2)cc1 | 770
21 | CC[C@@H](C)[C@H](N)CN(C(=O)[C@@H]1C[C@H]1c1ccccc1)c1ccc(-c2ccccc2)cc1 | 1.4
22 | CCCc1ccc(-c2ccc(N(C[C@@H](N)[C@@H](C)CC)C(=O)[C@@H]3C[C@H]3c3ccccc3)cc2)cc1 | 61
23 | CC[C@H](C)[C@H](N)CN(C(=O)[C@@H]1C[C@H]1c1ccccc1)c1ccc(-c2ccc(CNC)cc2)cc1 | 6400
24 | CC(C)C[C@H](N)CN(C(=O)[C@@H]1C[C@H]1c1ccccc1)c1ccc(-c2ccccc2Cl)cc1 | 3800
25 | CC[C@H](C)[C@H](N)CN(C(=O)[C@@H]1C[C@H]1c1ccccn1)c1ccc(-c2ccc(COC)cc2)cc1 | 15

Row | Compound | EC50 [nM]
26 | CC[C@H](C)[C@H](N)CN(C(=O)[C@@H]1C[C@H]1c1ccccc1)c1ccc(-c2ccc(OC)cc2)cc1 | 120
27 | CC(C)C[C@H](N)CN(C(=O)[C@@H]1C[C@H]1c1ccccc1)c1ccc(-c2ccoc2)cc1 | 2000
28 | Cc1ccccc1-c1ccc(N(C[C@@H](N)CC(C)C)C(=O)[C@@H]2C[C@H]2c2ccccc2)cc1 | 3400
29 | CO[C@H](C)[C@H](N)CN(C(=O)[C@@H]1C[C@H]1c1ccccc1)c1ccc(-c2ccccc2)cc1 | 0.68
30 | CC[C@H](C)[C@H](N)CN(C(=O)[C@@H]1C[C@H]1c1ccccc1)c1ccc(-c2ccccc2)cc1 | 230
31 | CC(C)C[C@H](N)CN(C(=O)[C@@H]1C[C@H]1c1ccccc1)c1ccc(-c2cccs2)cc1 | 1500
32 | CC[C@H](C)[C@H](N)CN(C(=O)[C@H]1C[C@@H]1c1ccccn1)c1ccc(-c2ccc(COC)cc2)cc1 | 1200
33 | CC[C@H](C)[C@H](N)CN(C(=O)[C@@H]1C[C@H]1c1cncnc1)c1ccc(-c2ccccc2)cc1 | 19000
34 | COc1ccccc1-c1ccc(N(C[C@@H](N)CC(C)C)C(=O)[C@@H]2C[C@H]2c2ccccc2)cc1 | 3200
35 | CC[C@H](C)[C@H](N)CN(C(=O)[C@@H]1C[C@H]1c1ccc(F)c(F)c1)c1ccc(-c2ccccc2)cc1 | 720
36 | CCOc1ccc(-c2ccc(N(C[C@@H](N)[C@@H](C)CC)C(=O)[C@@H]3C[C@H]3c3ccccc3)cc2)cc1 | 90
37 | CC[C@H](C)[C@H](N)CN(C(=O)[C@@H]1C[C@H]1c1ncc(C)s1)c1ccc(-c2ccccc2)cc1 | 1300
38 | CC[C@H](C)[C@H](N)CN(C(=O)[C@@H]1C[C@H]1c1ccc(F)cc1F)c1ccc(-c2ccccc2)cc1 | 1300
39 | CCC(CC)C(N)CCN(C(=O)[C@@H]1C[C@H]1c1ccccc1)c1ccc(-c2ccccc2)cc1 (some centres undefined) | 2
40 | CC(C)C[C@H](N)CN(C(=O)[C@@H]1C[C@H]1c1ccccc1)c1ccc(-c2ccc(C#N)cc2)cc1 | 670
41 | CC(C)C[C@H](N)CN(C(=O)[C@@H]1C[C@H]1c1ccccc1)c1ccc(-c2ccc(F)cc2)cc1 | 900
42 | CC[C@H](C)[C@H](N)CN(C(=O)[C@@H]1C[C@H]1c1nc(C)cs1)c1ccc(-c2ccccc2)cc1 | 730
43 | CC(C)C[C@H](N)CN(C(=O)C(C)Cc1ccccc1)c1ccc(-c2ccccc2)cc1 (some centres undefined) | 1.2
44 | CC(C)C[C@H](N)CN(C(=O)[C@@H]1C[C@H]1c1ccccc1)c1ccc(C2=CCCCCC2)cc1 | 2100
45 | CC[C@H](C)[C@H](N)CN(C(=O)[C@@H]1C[C@H]1c1ccccc1)c1ccc(-c2ccc(CN)cc2)cc1 | > 30000
46 | CC(C)C[C@H](N)CN(C(=O)[C@@H]1C[C@H]1c1ccccc1)c1ccc(-c2ccccc2F)cc1 | 1600
47 | CC[C@H](C)[C@H](N)CN(C(=O)[C@@H]1C[C@H]1c1csc(C)n1)c1ccc(-c2ccccc2)cc1 | 1500
48 | CC[C@H](C)[C@H](N)CN(C(=O)[C@@H]1C[C@H]1c1ccccn1)c1ccc(-c2ccccc2)cc1 | 130
49 | CC[C@H](C)[C@H](N)CN(C(=O)[C@@H]1C[C@H]1c1ncccn1)c1ccc(-c2ccccc2)cc1 | 130
50 | Cc1ccc(-c2ccc(N(C[C@@H](N)CC(C)C)C(=O)[C@@H]3C[C@H]3c3ccccc3)cc2)cc1 | 360

Other lines, results leading:

Row | EC50 [nM] | Compound
51 | 1200 | CC(C)C[C@H](N)CN(C(=O)[C@@H]1C[C@H]1c1ccccc1)c1ccc(C2=CCCCC2)cc1
52 | 1200 | CC(C)C[C@H](N)CN(C(=O)[C@@H]1C[C@H]1c1ccccc1)c1ccc(C2=CCCC2)cc1
53 | 5.1 | CC(C)CCNCCN(C(=O)[C@@H]1C[C@H]1c1ccccc1)c1ccc(-c2ccccc2)cc1
54 | 880 | CC(C)C[C@H](N)CN(C(=O)[C@@H]1C[C@H]1c1ccccc1)c1ccc(-c2ccccc2)cc1 (racemic)
55 | 1200 | CC[C@H](C)[C@H](N)CN(C(=O)[C@@H]1C[C@H]1c1ccccc1)c1ccc(-c2ccc(NS(C)(=O)=O)cc2)cc1
56 | 1100 | CC[C@H](C)[C@H](N)CN(C(=O)[C@@H]1C[C@H]1c1ccccc1)c1ccc(-c2ccc(CO)cc2)cc1
57 | 1.4 | CC(C)(N)CN(C(=O)[C@@H]1C[C@H]1c1ccccc1)c1ccc(-c2ccccc2)cc1
58 | 960 | CC[C@H](C)[C@H](N)CN(C(=O)[C@@H]1C[C@H]1c1cc(F)cc(F)c1)c1ccc(-c2ccccc2)cc1
59 | 800 | CC[C@H](C)[C@H](N)CN(C(=O)[C@@H]1C[C@H]1c1ccccc1)c1ccc(-c2ccccc2)cc1 (racemic)
60 | 460 | CC[C@H](C)[C@H](N)CN(C(=O)[C@@H]1C[C@H]1c1ccccc1)c1ccc(-c2ccc(CN(C)C)cc2)cc1
61 | 260 | CCOC(=O)c1ccc(-c2ccc(N(C[C@@H](N)[C@@H](C)CC)C(=O)[C@@H]3C[C@H]3c3ccccc3)cc2)cc1
62 | 1500 | CC[C@H](C)[C@H](N)CN(C(=O)[C@@H]1C[C@H]1c1ccncc1)c1ccc(-c2ccccc2)cc1
63 | 4.7 | CCC(C)CNCCN(C(=O)[C@@H]1C[C@H]1c1ccccc1)c1ccc(-c2ccccc2)cc1 (some centres undefined)
64 | > 100 | CC(C)CCCN(C(=O)[C@@H]1C[C@H]1c1ccccc1)c1ccc(-c2ccccc2)cc1
65 | 170 | CC[C@H](C)[C@H](N)CN(C(=O)[C@@H]1C[C@H]1c1ccccc1)c1ccc(-c2ccc(OC(F)(F)F)cc2)cc1
66 | 1100 | COc1cccc(-c2ccc(N(C[C@@H](N)CC(C)C)C(=O)[C@@H]3C[C@H]3c3ccccc3)cc2)c1
67 | 560 | CC[C@H](C)[C@H](N)CN(C(=O)[C@@H]1C[C@H]1c1cccc(F)c1)c1ccc(-c2ccccc2)cc1
68 | 360 | CC[C@H](C)[C@H](N)CN(C(=O)[C@@H]1C[C@H]1c1cccs1)c1ccc(-c2ccccc2)cc1
69 | 13000 | CC(C)C[C@H](N)CN(C(=O)[C@@H]1C[C@H]1c1ccccc1)c1ccc(-c2ccncc2)cc1
70 | 5500 | CC[C@H](C)[C@H](N)CN(C(=O)[C@@H]1C[C@H]1c1ccccc1)c1ccc(-c2ccc(NC(C)=O)cc2)cc1
71 | 44 | CCc1ccc(-c2ccc(N(C[C@@H](N)[C@@H](C)CC)C(=O)[C@@H]3C[C@H]3c3ccccc3)cc2)cc1
72 | 4300 | CC[C@H](C)[C@H](N)CN(C(=O)[C@@H]1C[C@H]1c1ccc(Cl)cc1)c1ccc(-c2ccccc2)cc1
73 | 1200 | Cc1cccc(-c2ccc(N(C[C@@H](N)CC(C)C)C(=O)[C@@H]3C[C@H]3c3ccccc3)cc2)c1
74 | 2 | CN[C@@H](CC(C)C)CN(C(=O)[C@@H]1C[C@H]1c1ccccc1)c1ccc(-c2ccccc2)cc1
75 | 66 | CC[C@H](C)[C@H](N)CN(C(=O)[C@@H]1C[C@H]1c1ccccc1)c1ccc(-c2ccc(CC(=O)OC)cc2)cc1
76 | 110 | CC[C@H](C)[C@H](N)CN(C(=O)[C@@H]1C[C@H]1c1ccccc1)c1ccc(-c2ccc(CCC(=O)OC)cc2)cc1
77 | 0.66 | N[C@H](CN(C(=O)[C@@H]1C[C@H]1c1ccccc1)c1ccc(-c2ccccc2)cc1)C1CCCCC1
78 | 580 | CC[C@H](C)[C@H](N)CN(C(=O)[C@@H]1C[C@H]1c1ccoc1)c1ccc(-c2ccccc2)cc1
79 | 1.7 | N[C@@H](CC1CCCCC1)CN(C(=O)[C@@H]1C[C@H]1c1ccccc1)c1ccc(-c2ccccc2)cc1
